In US12458643B2, “Antidepressant/anxiolytic drug in which PAC1 receptor antagonist is used” (KAGOSHIMA UNIVERSITY, priority 2020, dated 2025):

Tests used:
[1] = tested on: normal mice; assay: Forced swim test in normal mice; assay type: in vivo, mouse; settings: normal male C57BL/6J mice, 30 mg/kg i.p., 60 min after administration, 6 min swim
Description: The effects of PA-8 and PA-81004 on normal mice were evaluated by a forced swim test (test that exploits the switch of mice caused to swim in an inevitable environment from active escape behavior to a passive state of floating or immobility; in this test, depressive-like behavior is evaluated by placing the mice in an acrylic cylinder of 20 cm in diameter and 25 cm in height filled with water (water temperature: 25° C.) up to a depth of 15 cm, and measuring a passive floating or immobility time).
(§1) Male C57BL/6J mice (8 to 12 weeks old) were acclimatized to a laboratory (illuminance: 200 lx) for 60 minutes. Then, a vehicle (10% DMSO solution; dissolved in saline; n=9), PA-8 (30 mg/kg; n=9) or PA-81004 (30 mg/kg; n=9) was intraperitoneally administered thereto (0.1 mL/10 g). After a lapse of 60 minutes after administration, the mice were forced to swim for 6 minutes, and an immobility time was measured.
The effects of PA-9 and PA-915 on normal mice were evaluated by the forced swim test.
as §1, with “n=10), PA-9” for “n=9), PA-8”, “PA-915” for “PA-81004”

[2] = tested on: chronic social defeat stress mice; assay: Chronic social defeat stress, sucrose preference test; assay type: in vivo, mouse; settings: for sustained effect on reduced sucrose preference: 8, 15, 29, 57 days after single i.p. dose (PA-915 30 mg/kg, ketamine 20 mg/kg), fluoxetine: after withdrawal of 14-day administration
Description: In a sucrose preference test, mice are exposed to a sucrose solution and regular water contained in bottles at the same time. Normal mice prefer to drink the sweet sucrose solution, whereas depressed mice drink the sucrose solution at a decreased ratio.
(§2) Chronic social defeat stress was applied at 10 min/day for 10 days (Days 1 to 10) to male C57BL/6N mice (8 to 12 weeks old) each reared in isolation for 10 days or longer. On Day 11, SPAT was conducted, and susceptible mice were selected. A vehicle (10% DMSO solution; dissolved in saline; n=11) or PA-8 (30 mg/kg; n=9) was intraperitoneally administered once daily (0.1 mL/10 g) for 7 consecutive days from day 12. The sucrose preference test was conducted (a sucrose preference ratio was studied for 17 hours) 30 minutes after the final administration on the 7th day (Day 18). Mice reared for 10 days in a home cage without chronic social defeat stress load were used as a control (n=10). The data was indicated by mean±standard error. *P<0.05 (One-way ANOVA followed by Tukey-Kramer test).
as §2, with “PA-9” for “PA-8”, “n=9 or 8)” for “n=9)”, “after administration on” for “after”, “first day (Day 12) and” for “final administration”, “18). […]” for “18).”
Chronic social defeat stress was applied at 10 min/day for 10 days (Days 1 to 10) to male C57BL/6N mice (8 to 12 weeks old) each reared in isolation for 10 days or longer. On Day 11, SPAT was conducted, and susceptible mice were selected. On the next day (Day 12), a vehicle (10% DMSO solution; dissolved in saline; n=11) or PA-915 (30 mg/kg; n=10) was intraperitoneally administered (0.1 mL/10 g) to the mice. The sucrose preference test was conducted (a sucrose preference ratio was studied for 17 hours) from 30 minutes after administration. Mice reared for 10 days in a home cage without chronic social defeat stress load were used as a control (n=15). The data was indicated by mean±standard error. *P<0.05 (One-way ANOVA followed by Tukey-Kramer test).
Chronic social defeat stress was applied at 10 min/day for 10 days (Days 1 to 10) to male C57BL/6N mice (8 to 12 weeks old) each reared in isolation for 10 days or longer. On Day 11, the social preference or avoidance test (SPAT) was conducted, and susceptible mice were selected. On the next day (Day 12), a vehicle (V: 10% DMSO solution; dissolved in saline; n=17), PA-915 (P: 30 mg/kg; n=15), ketamine (K: 20 mg/kg; n=15) or fluoxetine (F: 20 mg/kg; n=16, n=15 only on Day 69) was intraperitoneally administered (0.1 mL/10 g) to the mice. The sucrose preference test was conducted 24 hours later (Day 13), 8 days later (Day 20), 15 days later (Day 27), 29 days later (Day 41), and 57 days later (Day 69) (a sucrose preference ratio was studied on each day from 5:00 p.m. of the previous day to 10:00 a.m. of the day). However, for the fluoxetine administration group, consecutive administration (F: 20 mg/kg, intraperitoneal administration (0.1 mL/10 g)) was performed for 14 days from Day 12 to Day 26. Mice reared for 10 days in a home cage without chronic social defeat stress load were used as a control (n=22). The data was indicated by mean±standard error. **P<0.01; *P<0.05 (One-way ANOVA followed by Tukey-Kramer test). […]

[3] = chronic social defeat stress, 30 mg/kg i.p. once daily for 7 days, test 30 min after final administration (Day 18)
[4] = Example 19, single i.p. dose (PA-915 30 mg/kg, ketamine 20 mg/kg, fluoxetine 20 mg/kg), 24 hours later (Day 13)

Compound	pharmacological action in forced swim test (immobility time) [1]	effect on reduced sucrose preference [2, 3]	effect on reduced sucrose preference ([2]; chronic social defeat stress, 30 mg/kg i.p. single dose (Day 12), test from 30 min after administration, 17 hours)	sustained effect on reduced sucrose preference ([2]; Example 19)	effect on reduced sucrose preference ([2]; Example 19, fluoxetine 20 mg/kg i.p. 14-day consecutive administration (Day 12 to Day 26))	effect on reduced sucrose preference [2, 4]
C=CCOc1ccc(C2CC(=O)Nc3nc(N)[nH]c(=O)c32)cc1OC (centres unmarked) [PA-8]	no pharmacological action	improving effect				
O=C(NCCc1c[nH]cn1)C1CC(=O)N(c2n[nH]c3ccccc23)C1 (centres unmarked) [PA-9]	no pharmacological action	its effect was also sustained after repeated administration for 7 days	improved sucrose preference even by single-dose administration			
Nc1nc2c(c(=O)[nH]1)C(c1cccc(OC(F)(F)F)c1)CC(=O)N2 (centres unmarked) [PA-81004, 2-Amino-5-(3-trifluoromethoxyphenyl)-5,8-dihydro-3H,6H-pyrido[2,3-d]pyrimidine-4,7-dione]	no pharmacological action					
CNCCC(Oc1ccc(C(F)(F)F)cc1)c1ccccc1 (centres unmarked) [fluoxetine]				its effectiveness was not maintained after drug withdrawal	improved reduced sucrose preference	did not improve sucrose preference
CNC1(c2ccccc2Cl)CCCCC1=O (centres unmarked) [ketamine]				maintained its effectiveness 8, 15, 29, and 57 days later		improved reduced sucrose preference in a fast-acting manner
